Results reported in patent US9120804B2, “8-substituted 2-amino-[1,2,4] triazolo [1, 5-A] pyrazines as Syk tryrosine kinase inhibitors and GCN2 serin kinase inhibitors” (Merck Patent GmbH, priority 2012, dated 2015).

biological target: T1, SYK (Homo sapiens, UniProt P43405); assay: SYK flash plate assay (enzyme assay); type: biochemical
T1 construct: 2.5 nM SYK, 400 nM Biotin-Aha-Aha-KEDPDYEWPSAKK
In short: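 Radiometric Flashplate format: biotinylated peptide substrate (400 nM) and 33P-labelled ATP (10 μM) react with 2.5 nM enzyme for 1 hour at 30 °C in Hepes buffer, pH 7.5. After EDTA quench and washing, counts are taken; staurosporine defines non-specific signal, and IC50 values are derived.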

SMILES	IC50
Cc1nc(C2CCN(c3nccn4nc(Nc5ccc6c(c5)NC(=O)C6(C)C)nc34)CC2)[nH]c1C [E37, 6-{8-[4-(4,5-dimethyl-1H-imidazol-2-yl)-piperidin-1-yl]-[1,2,4]triazolo[1,5-a]pyrazin-2-ylamino}-3,3-dimethyl-1,3-dihydro-indol-2-one]	100 to 300 nM
CC1(C)C(=O)Nc2cc(Nc3nc4c(N5C[C@@H](O)C[C@@H]5c5cccc(F)c5)nccn4n3)ccc21 [E62, 6-{8-[(2R,4S)-2-(3-fluoro-phenyl)-4-hydroxy-pyrrolidin-1-yl]-[1,2,4]triazolo[1,5-a]pyrazin-2-ylamino}-3,3-dimethyl-1,3-dihydro-indol-2-one]	300 to 3000 nM
Cn1cc(-c2nccn3nc(Nc4ccc5c(c4)NS(=O)(=O)C5)nc23)cn1 [E23, (2,2-dioxo-2,3-dihydro-1H-2I6-benzo[c]isothiazol-6-yl)-[8-(1-methyl-1H-pyrazol-4-yl)-[1,2,4]triazolo[1,5-a]pyrazin-2-yl]-amine]	100 to 300 nM
c1ccc(-c2ccccc2-c2nccn3nc(Nc4ccc5cn[nH]c5c4)nc23)cc1 [C11, (8-Biphenyl-2-yl-[1,2,4]triazolo[1,5-a]pyrazin-2-yl)-(1H-indazol-6-yl)-amine]	300 to 3000 nM
CN(c1nccn2nc(Nc3ccc4c(c3)NC(=O)C4(C)C)nc12)C1CCNCC1 [E17, 3,3-dimethyl-6-[8-(methyl-piperidin-4-yl-amino)-[1,2,4]triazolo[1,5-a]pyrazin-2-ylamino]-1,3-dihydro-indol-2-one]	100 to 300 nM
CN(C)c1ccc2c(c1)N(c1nccn3nc(Nc4ccc5c(c4)NC(=O)C5(C)C)nc13)CC2 [E119, 6-[8-(6-dimethylamino-2,3-dihydro-indol-1-yl)-[1,2,4]triazolo[1,5-a]pyrazin-2-ylamino]-3,3-dimethyl-1,3-dihydro-indol-2-one]	100 to 300 nM
CC1(C)C(=O)Nc2cc(Nc3nc4c(Nc5n[nH]c(C(F)(F)F)n5)nccn4n3)ccc21 [E60, 3,3-dimethyl-6-[8-(5-trifluoromethyl-1H-[1,2,4]triazol-3-ylamino)-[1,2,4]triazolo[1,5-a]pyrazin-2-ylamino]-1,3-dihydro-indol-2-one]	300 to 3000 nM
CC1(C)C(=O)Nc2cc(Nc3nc4c(N5CCC(COC=O)C5)nccn4n3)ccc21 (stereo not drawn) [E34, formic acid 1-[2-(3,3-dimethyl-2-oxo-2,3-dihydro-1H-indol-6-ylamino)-[1,2,4]triazolo[1,5-a]pyrazin-8-yl]pyrrolidin-3-ylmethyl ester]	100 to 300 nM
CC(=O)N1CCC(N(C)c2nccn3nc(Nc4ccc5c(c4)NC(=O)C5(C)C)nc23)CC1 [E14, 6-{8-[(1-acetyl-piperidin-4-yl)-methyl-amino]-[1,2,4]triazolo[1,5-a]pyrazin-2-ylamino}-3,3-dimethyl-1,3-dihydro-indol-2-one]	100 to 300 nM
CN(c1cccc(C(N)=O)c1)c1nccn2nc(Nc3ccc4c(c3)NC(=O)C4(C)C)nc12 [E151, 3-{[2-(3,3-dimethyl-2-oxo-2,3-dihydro-1H-indol-6-ylamino)-[1,2,4]triazolo[1,5-a]pyrazin-8-yl]-methyl-amino}-benzamide]	300 to 3000 nM
CC1(C)C(=O)Nc2cc(Nc3nc4c(NC(=O)c5ccc6c(c5)NCC6)nccn4n3)ccc21 [E129, 2,3-dihydro-1H-indole-6-carboxylic acid [2-(3,3-dimethyl-2-oxo-2,3-dihydro-1H-indol-6-ylamino)-[1,2,4]triazolo[1,5-a]pyrazin-8-yl]-amide]	300 to 3000 nM
COc1ccc(OC)c(Nc2nc3c(-c4ccccc4-c4ccccc4)nccn3n2)c1 [C3, (8-Biphenyl-2-yl-[1,2,4]triazolo[1,5-a]pyrazin-2-yl)-(2,5-dimethoxy-phenyl)-amine]	300 to 3000 nM
CC(=O)NCCNc1nccn2nc(Nc3ccc4c(c3)NC(=O)C4(C)C)nc12 [E103, N-{2-[2-(3,3-dimethyl-2-oxo-2,3-dihydro-1H-indol-6-ylamino)-[1,2,4]triazolo[1,5-a]pyrazin-8-ylamino]-ethyl}-acetamide]	300 to 3000 nM
CC1(C)C(=O)Nc2cc(Nc3nc4c(N5C[C@H](OC=O)C[C@@H]5c5ccccc5C(F)(F)F)nccn4n3)ccc21 [E85, formic acid (3R,5R)-1-[2-(3,3-dimethyl-2-oxo-2,3-dihydro-1H-indol-6-ylamino)-[1,2,4]triazolo[1,5-a]pyrazin-8-yl]-5-(2-trifluoromethyl-phenyl)-pyrrolidin-3-yl ester]	3000 to 50000 nM
CCN(CC)c1nccn2nc(Nc3ccc4c(c3)NC(=O)C4(C)C)nc12 [E92, 6-(8-diethylamino-[1,2,4]triazolo[1,5-a]pyrazin-2-ylamino)-3,3-dimethyl-1,3-dihydro-indol-2-one]	< 100 nM

More lines, now with the values ahead:

IC50	SMILES
< 100 nM	CC1(C)CCNc2cc(Nc3nc4c(N5CCN6C(=O)CNC(=O)C6C5)nccn4n3)ccc21 (stereo not drawn) [E154, 8-[2-(4,4-dimethyl-1,2,3,4-tetrahydro-quinolin-7-ylamino)-[1,2,4]triazolo[1,5-a]pyrazin-8-yl]-hexahydro-pyrazino[1,2-a]pyrazine-1,4-dione]
< 100 nM	CC1(C)C(=O)Nc2cc(Nc3nc4c(NC5CCCNC5)nccn4n3)ccc21 (stereo not drawn) [C77, 3,3-dimethyl-6-[8-(piperidin-3-ylamino)-[1,2,4]triazolo[1,5-a]pyrazin-2-ylamino]-1,3-dihydro-indol-2-one]
< 100 nM	CC1(C)C(=O)Nc2cc(Nc3nc4c(N5CCC6(CNC(=O)C6)C5)nccn4n3)ccc21 (stereo not drawn) [E20, 3,3-dimethyl-6-[8-(8-oxo-2,7-diaza-spiro[4.4]non-2-yl)-[1,2,4]triazolo[1,5-a]pyrazin-2-ylamino]-1,3-dihydro-indol-2-one]
< 100 nM	CC1(C)C(=O)Nc2cc(Nc3nc4c(N5CCC6(CC5)NC(=O)NC6=O)nccn4n3)ccc21 [E28, 8-[2-(3,3-dimethyl-2-oxo-2,3-dihydro-1H-indol-6-ylamino)-[1,2,4]triazolo[1,5-a]pyrazin-8-yl]-1,3,8-triaza-spiro[4.5]decane-2,4-dione]
< 100 nM	CC1(C)C(=O)Nc2cc(Nc3nc4c(N5CCC(O)(C(F)(F)F)CC5)nccn4n3)ccc21 [E70, 6-[8-(4-hydroxy-4-trifluoromethyl-piperidin-1-yl)-[1,2,4]triazolo[1,5-a]pyrazin-2-ylamino]-3,3-dimethyl-1,3-dihydro-indol-2-one]
< 100 nM	CC1(C)C(=O)Nc2cc(Nc3nc4c(N5CCCC(=O)CC5)nccn4n3)ccc21 [E72, 3,3-dimethyl-6-[8-(4-oxo-azepan-1-yl)-[1,2,4]triazolo[1,5-a]pyrazin-2-ylamino]-1,3-dihydro-indol-2-one]
< 100 nM	CC1(C)NC(=O)Nc2cc(Nc3nc4c(N5CCC6(CC5)CNC(=O)O6)nccn4n3)ccc21 [E45, 4,4-dimethyl-7-[8-(2-oxo-1-oxa-3,8-diaza-spiro[4.5]dec-8-yl)-[1,2,4]triazolo[1,5-a]pyrazin-2-ylamino]-3,4-dihydro-1H-quinazolin-2-one]
< 100 nM	CC1(C)C(=O)Nc2cc(Nc3nc4c(N5CCCCCC5)nccn4n3)ccc21 [E57, 6-(8-azepan-1-yl-[1,2,4]triazolo[1,5-a]pyrazin-2-ylamino)-3,3-dimethyl-1,3-dihydro-indol-2-one]
< 100 nM	CC1(C)C(=O)Nc2cc(Nc3nc4c(N5CC[C@]6(CC(=O)NC6=O)C5)nccn4n3)ccc21 [E18, (S)-7-[2-(3,3-dimethyl-2-oxo-2,3-dihydro-1H-indol-6-ylamino)-[1,2,4]triazolo[1,5-a]pyrazin-8-yl]-2,7-diaza-spiro[4.4]nonane-1,3-dione]
< 100 nM	CC1(C)C(=O)Nc2cc(Nc3nc4c(N[C@H]5CC[C@@H](O)CC5)nccn4n3)ccc21 [C75, cis-6-[8-(4-hydroxy-cyclohexylamino)-[1,2,4]triazolo[1,5-a]pyrazin-2-ylamino]-3,3-dimethyl-1,3-dihydro-indol-2-one]
< 100 nM	CC1(C)C(=O)Nc2cc(Nc3nc4c(-c5cnn(C6CCOCC6)c5)nccn4n3)ccc21 [E148, 3,3-dimethyl-6-{8-[1-(tetrahydro-pyran-4-yl)-1H-pyrazol-4-yl]-[1,2,4]triazolo[1,5-a]pyrazin-2-ylamino}-1,3-dihydro-indol-2-one]
< 100 nM	CC1(C)C(=O)Nc2cc(Nc3nc4c(N5CCC6(CNC(=O)O6)C5)nccn4n3)ccc21 (stereo not drawn) [E112, 3,3-dimethyl-6-[8-(2-oxo-1-oxa-3,7-diaza-spiro[4.4]non-7-yl)-[1,2,4]triazolo[1,5-a]pyrazin-2-ylamino]-1,3-dihydro-indol-2-one]
< 100 nM	CC1(C)C(=O)Nc2cc(Nc3nc4c(-c5c[nH]c6ccccc56)nccn4n3)ccc21 [E76, 6-[8-(1H-indol-3-yl)-[1,2,4]triazolo[1,5-a]pyrazin-2-ylamino]-3,3-dimethyl-1,3-dihydro-indol-2-one]
< 100 nM	CC1(C)C(=O)Nc2cc(Nc3nc4c(N5CCC(S(N)(=O)=O)CC5)nccn4n3)ccc21 [E39, 1-[2-(3,3-dimethyl-2-oxo-2,3-dihydro-1H-indol-6-ylamino)-[1,2,4]triazolo[1,5-a]pyrazin-8-yl]-piperidine-4-sulfonic acid amide]
< 100 nM	CC1(C)C(=O)Nc2cc(Nc3nc4c(N5CCC6(CC5)CNC(=O)O6)nccn4n3)ccc21 [E27, 8-[2-(3,3-dimethyl-2-oxo-2,3-dihydro-1H-indol-6-ylamino)-[1,2,4]triazolo[1,5-a]pyrazin-8-yl]-1-oxa-3,8-diaza-spiro[4.5]decan-2-one]
< 100 nM	CC1(C)C(=O)Nc2cc(Nc3nc4c(N5CCc6ccc(N)cc65)nccn4n3)ccc21 [E102, 6-[8-(6-amino-2,3-dihydro-indol-1-yl)-[1,2,4]triazolo[1,5-a]pyrazin-2-ylamino]-3,3-dimethyl-1,3-dihydro-indol-2-one]
< 100 nM	CC1(C)C(=O)Nc2cc(Nc3nc4c(N5CCCC6(COC6)C5)nccn4n3)ccc21 [C92, 3,3-dimethyl-6-[8-(2-oxa-6-aza-spiro[3.5]non-6-yl)-[1,2,4]triazolo[1,5-a]pyrazin-2-ylamino]-1,3-dihydro-indol-2-one]
< 100 nM	CC1(C)C(=O)Nc2cc(Nc3nc4c(N5CCC6(CN[C@H](C(F)(F)F)C6)C5)nccn4n3)ccc21 (stereo partly drawn) [E153, 3,3-dimethyl-6-[8-((S)-8-trifluoromethyl-2,7-diaza-spiro[4.4]non-2-yl)-[1,2,4]triazolo[1,5-a]pyrazin-2-ylamino]-1,3-dihydro-indol-2-one]
